Source: patent publication US9365583B2, “Substituted pyrazoles and uses thereof” (Genentech, Inc., priority 2013, dated 2016)

Molecular target: T1, N-terminally GST-tagged DLK (catalytic domain amino acid 1-520) (Homo sapiens, UniProt Q12852)
T1 construct: N-terminally GST-tagged DLK (catalytic domain amino acid 1-520); purchased Carna Bioscience
T1 sequence (Q12852 1-520): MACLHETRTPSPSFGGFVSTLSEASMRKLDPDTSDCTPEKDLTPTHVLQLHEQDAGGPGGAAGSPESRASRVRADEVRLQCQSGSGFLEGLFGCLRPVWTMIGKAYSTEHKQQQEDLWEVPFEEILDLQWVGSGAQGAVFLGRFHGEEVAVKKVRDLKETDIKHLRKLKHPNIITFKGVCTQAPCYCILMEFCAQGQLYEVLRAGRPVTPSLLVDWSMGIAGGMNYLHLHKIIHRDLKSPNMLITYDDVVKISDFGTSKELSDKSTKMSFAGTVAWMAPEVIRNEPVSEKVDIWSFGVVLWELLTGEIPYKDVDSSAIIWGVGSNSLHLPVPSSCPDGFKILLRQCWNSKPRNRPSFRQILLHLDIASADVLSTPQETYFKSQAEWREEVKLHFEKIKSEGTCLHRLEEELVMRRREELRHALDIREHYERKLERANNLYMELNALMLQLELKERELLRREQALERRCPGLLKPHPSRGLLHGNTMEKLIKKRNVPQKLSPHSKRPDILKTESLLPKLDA
Experiment: DLK TR-FRET inhibition assay
Assay type: biochemical
Conditions: 5 nM GST-DLK, 40 nM HIS-MKK4 K131M substrate, 30 μM ATP, 60 minutes at ambient temperature
Procedure, shortened: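 Phosphorylated MKK4 was quantified by TR-FRET (Eu-labelled anti-phospho-MKK4, D2 anti-HIS; 3 h, 665 and 615 nm emission) after EDTA quench. Reactions held 5 nM GST-tagged DLK catalytic domain (1-520), 40 nM HIS-MKK4 K131M substrate, 30 μM ATP and compound (3-fold series from 20 uM), 60 min, room temperature, pH 7.5.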

| SMILES | Ki [nM] |
| --- | --- |
| CC(C)n1nc(-c2cnc(N)c(OC(F)F)c2)cc1[C@H]1[C@@H]2C[C@H](N3CCO[C@@H](C)C3)C[C@@H]21 [compound 78, 3-(difluoromethoxy)-5-(1-isopropyl-5-((1R,3r,5S,6S)-3-((S)-2-methylmorpholino)bicyclo[3.1.0]hexan-6-yl)-1H-pyrazol-3-yl) pyridin-2-amine] | 0.52 |
| CC(C)n1nc(-c2cnc(N)c(OC(F)F)c2)cc1[C@H]1[C@@H]2C[C@@H](N3CCOC[C@@H]3C)C[C@@H]21 [compound 79, 3-(difluoromethoxy)-5-(1-isopropyl-5-((1R,3s,5S,6S)-3-((S)-3-methylmorpholino)bicyclo[3.1.0]hexan-6-yl)-1H-pyrazol-3-yl) pyridin-2-amine] | 1.1 |
| CC(C)n1nc(-c2cnc(N)c(OC(F)F)c2)cc1[C@H]1[C@@H]2C[C@H](N3CCOC[C@@H]3C)C[C@@H]21 [compound 80, 3-(difluoromethoxy)-5-(1-isopropyl-5-((1R,3r,5S,6S)-3-((S)-3-methylmorpholino)bicyclo[3.1.0]hexan-6-yl)-1H-pyrazol-3-yl) pyridin-2-amine] | 0.6 |
| CC(C)n1nc(-c2cnc(N)c(OC(F)F)c2)cc1[C@H]1[C@@H]2C[C@H](N3CCOC[C@H]3C)C[C@@H]21 [compound 81, 3-(difluoromethoxy)-5-(1-isopropyl-5-((1R,3r,5S,6R)-3-((R)-3-methylmorpholino)bicyclo[3.1.0]hexan-6-yl)-1H-pyrazol-3-yl) pyridin-2-amine] | 1.43 |
| CC(C)n1nc(-c2cnc(N)c(OC(F)F)c2)cc1[C@H]1[C@@H]2C[C@@H](N3CCOC[C@H]3C)C[C@@H]21 [compound 82, 3-(difluoromethoxy)-5-(1-isopropyl-5-((1R,3s,5S,6R)-3-((R)-3-methylmorpholino)bicyclo[3.1.0]hexan-6-yl)-1H-pyrazol-3-yl) pyridin-2-amine] | 1.43 |
| CC(C)n1nc(-c2cnc(N)c(OC(F)F)c2)cc1[C@H]1[C@@H]2C[C@H](N3C[C@@H]4C[C@H]3CO4)C[C@@H]21 [compound 83, 5-(5-((1R,3r,5S,6S)-3-((1S,4S)-2-oxa-5-azabicyclo[2.2.1]heptan-5-yl)bicyclo[3.1.0]hexan-6-yl)-1-isopropyl-1H-pyrazol-3-yl)-3-(difluoromethoxy)pyridin-2-amine] | 0.12 |
| CC(C)n1nc(-c2cnc(N)c(OC(F)F)c2)cc1[C@H]1[C@@H]2C[C@@H](N3CCCOCC3)C[C@@H]21 [compound 87, 5-(5-((1R,3s,5S,6r)-3-(1,4-oxazepan-4-yl)bicyclo[3.1.0]hexan-6-yl)-1-isopropyl-1H-pyrazol-3-yl)-3-(difluoromethoxy)pyridin-2-amine] | 0.64 |
| CC(C)n1nc(-c2cnc(N)c(OC(F)F)c2)cc1[C@H]1[C@@H]2C[C@@H](N3CCN4CCCC4C3)C[C@@H]21 (stereo partly drawn) [compound 88, 3-(difluoromethoxy)-5-(5-((1R,3s,5S,6r)-3-(hexahydropyrrolo [1,2-a]pyrazin-2(1H)-yl)bicyclo [3.1.0]hexan-6-yl)-1-isopropyl-1H-pyrazol-3-yl)pyridin-2-amine] | 1.4 |
| CC(C)n1nc(-c2cnc(N)c(OC(F)F)c2)cc1[C@H]1[C@@H]2CC3(CCO3)C[C@@H]21 (stereo partly drawn) [compound 92, 3-(difluoromethoxy)-5-(1-isopropyl-5-((1 R,5S,6r)-spiro[bicyclo [3.1.0]hexane-3,2′-oxetan]-6-yl)-1H-pyrazol-3-yl)pyridin-2-amine] | 9.4 |
| CC(C)n1nc(-c2cnc(N)c(SC(F)(F)F)c2)cc1[C@H]1[C@@H]2C[C@@H](N3CCOCC3)C[C@@H]21 [compound 95, 5-(1-isopropyl-5-((1R,3s,5S,6r)-3-morpholinobicyclo[3.1.0]hexan-6-yl)-1H-pyrazol-3-yl)-3-((trifluoro-methyl)thio)pyridin-2-amine] | 2.13 |
| CC(C)n1nc(-c2cnc(N)c(C(F)(F)F)c2)cc1[C@H]1[C@@H]2C[C@H](N3CCOC[C@@H]3C)C[C@@H]21 [compound 98, 5-(1-isopropyl-5-((1R,3r,5S,6S)-3-((S)-3-methylmorpholino)bicyclo[3.1.0]hexan-6-yl)-1H-pyrazol-3-yl)-3-(trifluoromethyl) pyridin-2-amine] | 4.89 |
| CC(C)n1nc(-c2cnc(N)c(C(F)(F)F)c2)cc1[C@H]1[C@@H]2C[C@H](N3CCCOCC3)C[C@@H]21 [compound 100, 5-(5-((1R,3r,5S,6r)-3-(1,4-oxazepan-4-yl)bicyclo[3.1.0]hexan-6-yl)-1-isopropyl-1H-pyrazol-3-yl)-3-(trifluoromethyl)pyridin-2-amine] | 1.03 |

Now from value to compound:

| Ki [nM] | SMILES |
| --- | --- |
| 1.68 | CC(C)n1nc(-c2cnc(N)c(OC(F)F)c2)cc1[C@H]1[C@@H]2C[C@@H](N3CCOCC3)C[C@@H]21 [compound 84, 3-(difluoromethoxy)-5-(1-isopropyl-5-((1R,3s,5S,6r)-3-morpholino-bicyclo[3.1.0]hexan-6-yl)-1H-pyrazol-3-yl)pyridin-2-amine] |
| 47.8 | CC(C)n1nc(-c2cnc(N)c(OC(F)F)c2)cc1[C@H]1[C@@H]2CC(=O)C[C@@H]21 [compound 85, (1R,5S,6r)-6-(3-(6-amino-5-(difluoro-methoxy)pyridin-3-yl)-1-isopropyl-1H-pyrazol-5-yl)bicyclo [3.1.0]hexan-3-one] |
| 1.6 | CC(C)n1nc(-c2cnc(N)c(OC(F)F)c2)cc1[C@H]1[C@@H]2C[C@H](N3CCOCC3)C[C@@H]21 [compound 86, 3-(difluoromethoxy)-5-(1-isopropyl-5-((1R,3r,5S,6r)-3-morpholino-bicyclo[3.1.0]hexan-6-yl)-1H-pyrazol-3-yl)pyridin-2-amine] |
| 6.42 | CC(C)n1nc(-c2cnc(N)c(OC(F)F)c2)cc1[C@H]1[C@@H]2C[C@H](N3CCC(F)(F)C3)C[C@@H]21 [compound 89, 3-(difluoromethoxy)-5-(5-((1R,3r,5S,6r)-3-(3,3-difluoropyrrolidin-1-yl)bicyclo[3.1.0]hexan-6-yl)-1-isopropyl-1H-pyrazol-3-yl) pyridin-2-amine] |
| 5.95 | CO[C@H]1CCN([C@@H]2C[C@@H]3[C@H](C2)[C@H]3c2cc(-c3cnc(N)c(C(F)(F)F)c3)nn2C(C)C)C1 [compound 90, (1-isopropyl-5-((1R,3s,5S,6S)-3-((S)-3-methoxypyrrolidin-1-yl)bicyclo[3.1.0]hexan-6-yl)-1H-pyrazol-3-yl)-3-(trifluoromethyl) pyridin-2-amine] |
| 3.79 | Nc1ncc(-c2cc([C@H]3[C@@H]4C[C@H](N5CCOCC5)C[C@@H]43)n(CC(F)F)n2)cc1C(F)(F)F [compound 91, 5-(1-(2,2-difluoroethyl)-5-((1R,3r,5S,6r)-3-morpholinobicyclo [3.1.0]hexan-6-yl)-1H-pyrazol-3-yl)-3-(trifluoromethyl)pyridin-2-amine] |
| 1.22 | Nc1ncc(-c2cc([C@H]3[C@@H]4C[C@H](N5CCOCC5)C[C@@H]43)n(CC(F)F)n2)cc1OC(F)(F)F [compound 93, 5-(1-(2,2-difluoroethyl)-5-((1R,3r,5S,6r)-3-morpholinobicyclo [3.1.0]hexan-6-yl)-1H-pyrazol-3-yl)-3-(trifluoromethoxy)pyridin-2-amine] |
| 1.45 | Nc1ncc(-c2cc([C@H]3[C@@H]4CC(O)C[C@@H]43)n(CC(F)F)n2)cc1OC(F)(F)F (stereo partly drawn) [compound 94, (1R,5S,6r)-6-(3-(6-amino-5-(trifluoromethoxy)pyridin-3-yl)-1-(2,2-difluoroethyl)-1H-pyrazol-5-yl)bicyclo[3.1.0]hexan-3-ol] |
| 19 | CC(C)n1nc(-c2cnc(N)c(OCC(F)(F)F)c2)cc1[C@H]1[C@@H]2C[C@@H](N3CCOCC3)C[C@@H]21 [compound 96, 5-(1-isopropyl-5-((1R,3s,5S,6r)-3-morpholinobicyclo[3.1.0]hexan-6-yl)-1H-pyrazol-3-yl)-3-(2,2,2-trifluoroethoxy)pyridin-2-amine] |
| 4.12 | CC(C)n1nc(-c2cnc(N)c(OC(F)(F)F)c2)cc1[C@H]1[C@@H]2C[C@H](N3CCOC[C@@H]3C)C[C@@H]21 [compound 97, 5-(1-isopropyl-5-((1R,3r,5S,6S)-3-((S)-3-methylmorpholino)bicyclo[3.1.0]hexan-6-yl)-1H-pyrazol-3-yl)-3-(trifluoromethoxy) pyridin-2-amine] |
| 1.16 | CC(C)n1nc(-c2cnc(N)c(OC(F)(F)F)c2)cc1[C@H]1[C@@H]2C[C@@H](N3CCCOCC3)C[C@@H]21 [compound 99, 5-(5-((1R,3s,5S,6r)-3-(1,4-oxazepan-4-yl)bicyclo[3.1.0]hexan-6-yl)-1-isopropyl-1H-pyrazol-3-yl)-3-(trifluoromethoxy)pyridin-2-amine] |
| 0.44 | CC(C)n1nc(-c2cnc(N)c(OC(F)(F)F)c2)cc1[C@H]1[C@@H]2C[C@H](N3CCCOCC3)C[C@@H]21 [compound 101, 5-(5-((1R,3r,5S,6r)-3-(1,4-oxazepan-4-yl)bicyclo[3.1.0]hexan-6-yl)-1-isopropyl-1H-pyrazol-3-yl)-3-(trifluoromethoxy)pyridin-2-amine] |
